According to US20210196672A1, “COMPOSITIONS COMPRISING 3'-O-METHYL-5-O-SULFATE EPICATECHIN AND THERAPEUTIC USES OF SUCH COMPOSITIONS” (NESTEC S.A., priority 2016, published 2021):

System: endothelial nitric oxide synthase
Assay: eNOS phosphorylation level in isolated aortic rat rings (western blot)
Type: cell-based
Details: isolated thoracic aortic rings of male adult Wistar rats, 1 h incubation, relative to the control (DMSO 1%) and chemically similar epicatechins, FIG. 2
Protocol: Comparative experiments were conducted on the expression of endothelial nitric oxide synthase in isolated aortic rat rings.
Thoracic aortas were obtained from male adults Wistar rats after euthanasia. Each aorta was carefully dissected and harvested cleaned of excess tissue and cut into three equal segments, approximately 7 mm long. All aortic rings were pre-incubated for 30 min in Krebs solution (20 mM Hepes buffer, pH 7.4, containing 119 mM NaCl, 4.7 mM KCl, 1 mM MgSO4, 0.4 mM NaH2PO4, 0.15 mM Na2HPO4, 5 mM NaHCO3, 1.25 mM CaCl2, 5.5 mM glucose) aerated with 95% 02 and 5% CO2 at 37° C. and then incubated with vehicle (DMSO 1%) or the different metabolites for 1 h. Metabolites were first dissolved in DMSO 1% and tested in a final concentration […]. At the end of the incubation period aortic rings were frozen at −70° C. until the homogenate preparation. Homogenates for western blot and western blot determinations were carried out by the regular procedures and phosphorylation level of endothelial nitric oxide synthase was evaluated.

## COc1cc([C@H]2Oc3cc(O)cc(OS(=O)(=O)O)c3C[C@H]2O)ccc1O [3′-O-methyl-5-O-sulfate epicatechin]
  eNOS phosphorylation: increased eNOS phosphorylation relative to the control and chemically similar epicatechins
